Results on three compounds are retold here after ChEMBL document CHEMBL4265884, “Discovery and biological activity of computer-assisted drug designed Akt pathway inhibitors” (Bioorg Med Chem Lett, 2018).

Each structure is given as a SMILES string. Calls of active or inactive are those of the source. The rule behind the calls is not given here.

The target of experiment [1] is RAC-alpha serine/threonine-protein kinase (Homo sapiens) (UniProt P31749). Put plainly: Inhibition of AKT phosphorylation at Ser473 in […] WBras1 cells at 2.5 uM after 24 hrs by Western blot analysis. The experiment is classed as cell-based. A general note: Immunoblotting shows a protein as a band on a membrane.
RAC-alpha serine/threonine-protein kinase (Homo sapiens), sequence (P31749 whole entry): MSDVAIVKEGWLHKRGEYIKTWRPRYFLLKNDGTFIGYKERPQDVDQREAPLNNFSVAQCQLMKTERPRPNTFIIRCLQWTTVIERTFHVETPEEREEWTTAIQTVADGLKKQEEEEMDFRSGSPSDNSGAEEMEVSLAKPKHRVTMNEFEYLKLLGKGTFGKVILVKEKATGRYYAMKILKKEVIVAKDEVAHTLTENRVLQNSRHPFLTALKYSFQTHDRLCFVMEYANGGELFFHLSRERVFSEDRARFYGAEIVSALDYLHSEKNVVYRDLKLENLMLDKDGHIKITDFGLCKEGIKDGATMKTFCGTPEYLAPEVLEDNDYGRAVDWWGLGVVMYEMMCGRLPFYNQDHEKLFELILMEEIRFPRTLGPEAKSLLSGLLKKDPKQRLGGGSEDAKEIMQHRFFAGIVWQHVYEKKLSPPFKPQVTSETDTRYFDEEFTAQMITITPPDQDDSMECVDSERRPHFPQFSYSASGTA
The target is the same in experiment [2]. Put plainly: Inhibition of AKT phosphorylation at Ser473 in […] WBras1 cells at 2.5 uM after 4 hrs by Western blot analysis. It is filed as cell-based.
Experiment [3] has the same target. Put plainly: Inhibition of AKT phosphorylation at Ser473 in human NCI-H2009 cells at 2.5 uM after 24 to 48 hrs by Western blot analysis. The experiment is classed as cell-based.
Experiment [4] shares this target. Nature of the experiment: Inhibition of AKT phosphorylation at Ser473 in human NCI-H2009 cells up to 10 uM after 4 hrs by Western blot analysis. It is filed as cell-based.
The subject of experiment [5] is NCI-H2009. Put plainly: Growth inhibition of human NCI-H2009 cells assessed as reduction in cell number at 2.5 uM after 2 to 4 days by flow cytometric analysis. It is filed as functional, cell-based. On the technique in general: Flow cytometry measures light scatter and fluorescence of single cells or particles in a stream.
The target of experiment [6] is RAC-alpha serine/threonine-protein kinase (Homo sapiens) (UniProt P31749). Put plainly: Inhibition of AKT phosphorylation at Ser473 in […] WBras1 cells at 25 uM after 24 hrs by Western blot analysis. The experiment is classed as cell-based.
The target is the same in experiment [7]. Nature of the experiment: Inhibition of AKT phosphorylation at Ser473 in […] WBras1 cells at 25 uM after 4 hrs by Western blot analysis. It is filed as cell-based.
For experiment [8] the target is unchanged. Nature of the experiment: Inhibition of AKT phosphorylation at Ser473 in human NCI-H2009 cells at 25 uM after 24 hrs by Western blot analysis. The experiment is classed as cell-based.
For experiment [9] the target is unchanged. Put plainly: Inhibition of AKT phosphorylation at Ser473 in […] WBras1 cells at 1.25 uM after 24 hrs by Western blot analysis. The experiment is classed as cell-based.
For experiment [10] the target is unchanged. Put plainly: Inhibition of AKT phosphorylation at Ser473 in […] WBras1 cells at 1.25 uM after 4 hrs by Western blot analysis. The experiment is classed as cell-based.
For experiment [11] the target is unchanged. Put plainly: Inhibition of AKT phosphorylation at Ser473 in human NCI-H2009 cells at 1.25 uM after 24 to 48 hrs by Western blot analysis. The experiment is classed as cell-based.
For experiment [12] the target is unchanged. Nature of the experiment: Inhibition of AKT phosphorylation at Ser473 in human NCI-H2009 cells at 2.5 uM after 1 to 4 hrs by Western blot analysis. It is filed as cell-based.
Experiment [13] deals with NCI-H2009. Nature of the experiment: Growth inhibition of human NCI-H2009 cells assessed as reduction in cell number at 1.25 uM after 2 to 4 days by flow cytometric analysis. It is filed as functional, cell-based.
Experiment [14] deals with NCI-H2009. Nature of the experiment: Growth inhibition of human NCI-H2009 cells assessed as reduction in cell number after 2 days by flow cytometric analysis. The experiment is classed as functional, cell-based.

For `CCCCCCCCCCCCSC(=NC)NC`, the inhibition result in [1] and in experiment [2] was “Active” in each case. The inhibition result in experiment [3] and in [4] was “inactive” each time. In addition, in the experiment on NCI-H2009 [5], the “growth inhibition (GI)” value was “Active”.
For `C=CCCCCCCCCC1OCCN1CC` (stereo unspecified), the inhibition result in experiment [6] and in experiment [7] was “Active” throughout. Moreover, in [8], the inhibition entry was “inactive”. Besides, in the experiment on NCI-H2009 [5], the “growth inhibition (GI)” value is “inactive”.
The IC50 is the concentration that inhibits the measured activity by half. For `CCCCCCCCCCCCSC1=NCCCN1`, the inhibition entry in experiment [9], in experiment [10], in experiment [11] and in [12] was “Active” in each case. Also, in the experiment on NCI-H2009 [13], the “growth inhibition (GI)” value was “Active”. Further, the “growth inhibition (GI)” value in the experiment with NCI-H2009 [14] is “Dose-dependent effect”. The IC50 in the experiment on NCI-H2009 [14] (NCI-H2009, 48 h) stood at 0.2 µM.
